From ChEMBL document CHEMBL5728563, “Aminopyrazine derivatives as PI3K-γ inhibitors” (2021)

Key:
[1] = biological target: T1, Phosphatidylinositol 4,5-bisphosphate 3-kinase catalytic subunit delta isoform (Homo sapiens, UniProt O00329); assay: (§1) PI3Kdelta Scintillation Proximity Assay: Materials: [γ-33P]ATP (10 mCi/mL) and Wheat Germ Agglutinin (WGA) YSi SPA Scintillation Beads was purchased from Perkin Elmer (Waltham, Mass.). Lipid kinase substrate, D-myo-Phosphatidylinositol 4,5-bisphosphate (PtdIns(4,5)P2)D (+)-sn-1,2-di-O-octanoylglyceryl, 3-O-phospho linked (PIP2), CAS 204858-53-7, was purchased from Echelon Biosciences (Salt Lake City, Utah). PI3Kδ (p110δ/p85α) Recombinant Human Protein was purchased from Eurofins (St Charles, Mo.). ATP, MgCl2, DTT, EDTA, MOPS and CHAPS were purchased from Sigma Aldrich (St. Louis, Mo.).The kinase reaction was conducted in polystyrene 384-well Greiner Bio-one white plate from Thermo Fisher Scientific in a final volume of 25 μL. Inhibitors were first diluted serially in DMSO and added to the plate wells before the addition of other reaction components. The final concentration of DMSO in the assay was 2%. The PI3Kδ assay was carried out at room temperature in 20 mM MOPS, pH 6.7, 10 mM MgCl2, 5 mM DTT and CHAPS 0.03%. Reactions were initiated by the addition of ATP, the final reaction mixture consisted of 20 μM PIP2, 2 μM ATP, 0.5 μCi [γ-33P] ATP, 3.4 nM PI3Kδ. Reactions were incubated for 120 min and terminated by the addition of 40 μL SPA beads suspended in quench buffer: 163 mM potassium phosphate pH 7.8, 20% glycerol, 25 mM EDTA. The final concentration of SPA beads is 1.0 mg/mL. […]
T1 sequence (O00329 whole entry): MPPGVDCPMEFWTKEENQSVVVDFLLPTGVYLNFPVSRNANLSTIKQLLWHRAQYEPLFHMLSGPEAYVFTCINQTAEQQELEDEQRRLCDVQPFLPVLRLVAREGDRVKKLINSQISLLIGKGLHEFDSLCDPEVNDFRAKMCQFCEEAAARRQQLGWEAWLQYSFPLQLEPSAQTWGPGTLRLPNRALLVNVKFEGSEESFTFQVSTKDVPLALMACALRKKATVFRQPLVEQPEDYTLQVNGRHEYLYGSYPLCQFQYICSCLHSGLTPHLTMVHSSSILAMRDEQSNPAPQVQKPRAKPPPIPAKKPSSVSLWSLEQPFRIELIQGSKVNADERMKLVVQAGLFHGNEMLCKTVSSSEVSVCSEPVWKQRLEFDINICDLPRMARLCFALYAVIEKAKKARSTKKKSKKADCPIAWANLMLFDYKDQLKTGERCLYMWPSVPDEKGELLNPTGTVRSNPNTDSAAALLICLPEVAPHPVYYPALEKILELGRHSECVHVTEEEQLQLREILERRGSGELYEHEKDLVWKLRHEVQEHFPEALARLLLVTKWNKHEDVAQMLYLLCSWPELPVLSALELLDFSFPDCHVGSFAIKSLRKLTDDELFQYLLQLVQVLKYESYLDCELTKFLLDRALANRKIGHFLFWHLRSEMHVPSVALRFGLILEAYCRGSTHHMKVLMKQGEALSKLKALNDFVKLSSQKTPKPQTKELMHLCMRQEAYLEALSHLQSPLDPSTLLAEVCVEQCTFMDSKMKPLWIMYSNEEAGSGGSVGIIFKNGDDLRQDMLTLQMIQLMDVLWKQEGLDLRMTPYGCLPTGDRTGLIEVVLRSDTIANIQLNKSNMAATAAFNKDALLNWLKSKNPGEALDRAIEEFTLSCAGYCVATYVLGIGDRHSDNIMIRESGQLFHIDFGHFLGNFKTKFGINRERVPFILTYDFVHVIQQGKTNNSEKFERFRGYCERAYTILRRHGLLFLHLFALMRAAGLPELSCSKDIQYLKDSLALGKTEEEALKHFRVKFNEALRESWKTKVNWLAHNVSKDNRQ

[2] = biological target: Phosphatidylinositol 4,5-bisphosphate 3-kinase catalytic subunit gamma isoform (Homo sapiens, UniProt P48736); assay: as §1, with “PI3K-gamma” for “PI3Kdelta”, “PI3Kγ (p110γ)” for “PI3Kδ (p110δ/p85α)”, “Life technology (Grand Island, N.Y.).” for “Eurofins (St Charles, Mo.).”, “PI3Kγ” for “PI3Kδ”, “13” for “3.4”, “PI3Kγ.” for “PI3Kδ.”
Phosphatidylinositol 4,5-bisphosphate 3-kinase catalytic subunit gamma isoform, sequence (P48736 whole entry, canonical isoform): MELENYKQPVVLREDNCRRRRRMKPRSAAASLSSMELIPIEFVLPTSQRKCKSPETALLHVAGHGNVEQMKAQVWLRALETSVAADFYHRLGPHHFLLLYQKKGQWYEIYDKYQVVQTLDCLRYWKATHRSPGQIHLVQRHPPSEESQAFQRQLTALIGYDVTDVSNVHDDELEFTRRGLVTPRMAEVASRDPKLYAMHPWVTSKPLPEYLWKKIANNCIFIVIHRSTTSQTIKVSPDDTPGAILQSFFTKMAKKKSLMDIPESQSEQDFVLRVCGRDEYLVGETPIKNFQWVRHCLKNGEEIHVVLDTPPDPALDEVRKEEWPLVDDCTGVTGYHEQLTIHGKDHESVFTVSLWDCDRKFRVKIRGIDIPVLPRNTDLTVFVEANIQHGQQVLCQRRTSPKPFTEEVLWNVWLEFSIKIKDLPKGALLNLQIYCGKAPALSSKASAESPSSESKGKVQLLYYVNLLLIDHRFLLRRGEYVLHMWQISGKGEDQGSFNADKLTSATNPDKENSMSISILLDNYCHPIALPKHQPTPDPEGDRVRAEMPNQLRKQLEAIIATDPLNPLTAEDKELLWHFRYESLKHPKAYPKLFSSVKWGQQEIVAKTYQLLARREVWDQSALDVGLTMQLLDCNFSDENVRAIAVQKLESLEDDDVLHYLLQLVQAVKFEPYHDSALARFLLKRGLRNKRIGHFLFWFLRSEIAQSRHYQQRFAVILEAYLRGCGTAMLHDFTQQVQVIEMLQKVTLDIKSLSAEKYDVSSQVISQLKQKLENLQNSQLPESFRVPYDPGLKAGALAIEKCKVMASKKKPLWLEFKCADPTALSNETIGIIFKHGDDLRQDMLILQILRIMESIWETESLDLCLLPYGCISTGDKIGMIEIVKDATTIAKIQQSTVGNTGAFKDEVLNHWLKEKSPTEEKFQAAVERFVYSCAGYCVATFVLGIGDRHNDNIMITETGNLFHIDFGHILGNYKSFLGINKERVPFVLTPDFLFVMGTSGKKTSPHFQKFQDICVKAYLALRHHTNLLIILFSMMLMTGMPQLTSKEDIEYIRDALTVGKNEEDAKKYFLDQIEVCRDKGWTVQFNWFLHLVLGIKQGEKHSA

In the case of `Cc1ncc(-c2nc(-c3cc(C(O)(C(N)=O)C(F)(F)F)ccc3C)cnc2N)s1` (configuration not stated), the IC50 [1] is reported as < 100 nM and the IC50 [2] is reported as < 100 nM.
